Among the test systems are UO-31 renal; SF-295 CNS; M14 melanoma; K-562 leukemia; NCI-H460 lung; IGROV1 ovarian; PC-3 prostate; SW-620 colon; MCF7 breast; U251 CNS.
Common to all, as to assay: NCI tumour cell line growth inhibition, 48 h

This is an account of results in PubChem BioAssay (NCI).

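Interpolation was linear, between the two tested concentrations surrounding the appropriate level; five concentrations were tested over 48 hours in 96-well plates. TGI: concentration producing complete growth inhibition.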 Where only a bound is given, the exact number is not on record here.

As to `COc1c(C(=O)/C(=N/Nc2ccc(C(=O)O)cc2)C(C)=O)c(O)cc2occc12`, the TGI in the assay with UO-31 renal, in the assay with SF-295 CNS, with M14 melanoma, in the assay on K-562 leukemia, in the assay on NCI-H460 lung and in the assay on IGROV1 ovarian was > 100 µM in each case. Moreover, the TGI in the assay on PC-3 prostate, with SW-620 colon, in the assay with MCF7 breast and with U251 CNS was > 100 µM each time.
For `CCOC(CBr)OC1C(=O)OCC1(C)C` (stereo not given), the TGI in the assay with UO-31 renal, in the assay with SF-295 CNS, in the assay with M14 melanoma, with K-562 leukemia, in the assay on NCI-H460 lung and in the assay with IGROV1 ovarian was > 100 µM each time. Besides, the TGI in the assay with PC-3 prostate, in the assay with SW-620 colon, with MCF7 breast and in the assay with U251 CNS was > 100 µM each time.
Turning to `COC(=O)C1(Cc2ccc3c(c2)CCC3)Cc2ccc3c(c2C1=O)CCC3` (stereo not given), the TGI in the assay with UO-31 renal was > 100 µM; in the assay on SF-295 CNS it was > 72.6 µM; with M14 melanoma, 33.1 µM; in the assay with K-562 leukemia, > 100 µM; in the assay with NCI-H460 lung, > 63.9 µM; in the assay on IGROV1 ovarian, > 100 µM. For the same compound, the TGI is > 95.2 µM in the assay with PC-3 prostate, > 71.1 µM in the assay on SW-620 colon, > 20.4 µM in the assay with MCF7 breast and > 69.6 µM with U251 CNS.
`CCOC(=O)NC(Nc1ccc(F)cc1F)(C(F)(F)F)C(F)(F)F`: the TGI in the assay on UO-31 renal, with SF-295 CNS, with M14 melanoma, in the assay on K-562 leukemia, in the assay with NCI-H460 lung and with IGROV1 ovarian was > 100 µM throughout. Besides, the TGI in the assay with PC-3 prostate, with SW-620 colon, in the assay on MCF7 breast and with U251 CNS was > 100 µM in each case.
Consider `O=C(CCCc1cccc2[nH]c3c(c12)CN(Cc1ccccc1)CC3)c1ccc(F)cc1`, for which the TGI in the assay with UO-31 renal, with SF-295 CNS, in the assay on M14 melanoma, with K-562 leukemia, with NCI-H460 lung and with IGROV1 ovarian was > 100 µM each time. The TGI with PC-3 prostate, with SW-620 colon, in the assay with MCF7 breast and with U251 CNS was > 100 µM throughout.
In the case of `CCO/N=C\c1ccc2oc(-c3ccccc3)cc(=O)c2c1`, the TGI with UO-31 renal was 5.83 µM; with SF-295 CNS, 16.3 µM; in the assay with M14 melanoma it was > 31.6 µM; with K-562 leukemia, > 100 µM; in the assay with NCI-H460 lung it was 4.19 µM; in the assay on IGROV1 ovarian, 10.7 µM. Further, the TGI in the assay on PC-3 prostate was 20.4 µM; with SW-620 colon, > 100 µM; in the assay with MCF7 breast, 18 µM; in the assay on U251 CNS, 17.6 µM.
Consider `Cc1ccc(C(=O)Nc2ccc(S(=O)(=O)O)c3cc(S(=O)(=O)O)cc(S(=O)(=O)O)c23)cc1NC(=O)c1cccc(NC(=O)Nc2cccc(C(=O)Nc3cc(C(=O)Nc4ccc(S(=O)(=O)O)c5cc(S(=O)(=O)O)cc(S(=O)(=O)O)c45)ccc3C)c2)c1`, for which the TGI in the assay on UO-31 renal is 87.3 µM; in the assay with SF-295 CNS it was > 100 µM; with M14 melanoma, > 100 µM; in the assay on K-562 leukemia, > 100 µM; with NCI-H460 lung, > 100 µM; in the assay with IGROV1 ovarian, > 100 µM. Moreover, the TGI in the assay on PC-3 prostate, in the assay with SW-620 colon, in the assay with MCF7 breast and in the assay with U251 CNS was > 100 µM throughout.
For the compound `COc1cc2ncnc(NS(=O)(=O)c3cc4ccccc4s3)c2cc1OC`, the TGI in the assay with UO-31 renal, with SF-295 CNS, with M14 melanoma, with K-562 leukemia, in the assay with NCI-H460 lung and in the assay on IGROV1 ovarian was > 100 µM each time. Besides, the TGI with PC-3 prostate, in the assay on SW-620 colon, in the assay with MCF7 breast and in the assay with U251 CNS was > 100 µM throughout.
Consider `O=C1C=C(NCCc2ccc(O)c([N+](=O)[O-])c2)C(=O)c2[nH]cnc21`, for which the TGI is > 100 µM in the assay on UO-31 renal; 31.1 µM in the assay with SF-295 CNS; 32.3 µM with M14 melanoma; 42.7 µM in the assay with K-562 leukemia; 69.6 µM in the assay with NCI-H460 lung; 54.8 µM in the assay with IGROV1 ovarian. In addition, the TGI in the assay on PC-3 prostate is > 100 µM; in the assay with SW-620 colon, > 100 µM; with MCF7 breast, 78.1 µM; in the assay on U251 CNS it was > 100 µM.
Consider `COc1ccc(SCc2cc(OC)ccc2OC)cc1`, for which the TGI in the assay on UO-31 renal was > 100 µM; in the assay with SF-295 CNS it was > 100 µM; with M14 melanoma, > 100 µM; in the assay on K-562 leukemia, > 51.3 µM; in the assay with NCI-H460 lung, > 100 µM; in the assay on IGROV1 ovarian it was > 100 µM. Also, the TGI in the assay on PC-3 prostate, in the assay with SW-620 colon, in the assay with MCF7 breast and in the assay with U251 CNS was > 100 µM in each case.
Regarding `O=C1CCCC2=C1CC1=C(CCCC1=O)N2c1ccc(Cl)cc1`, the TGI with UO-31 renal, in the assay on SF-295 CNS, with M14 melanoma, in the assay on K-562 leukemia, with NCI-H460 lung and with IGROV1 ovarian was > 100 µM throughout. The TGI with PC-3 prostate, with SW-620 colon, in the assay with MCF7 breast and in the assay with U251 CNS was > 100 µM throughout.
Turning to `Cc1cc2ncn(CC(=O)O)c2cc1C`, the TGI with UO-31 renal, in the assay with SF-295 CNS, with M14 melanoma, in the assay on K-562 leukemia, in the assay with NCI-H460 lung and with IGROV1 ovarian was > 100 µM throughout. Moreover, the TGI in the assay with PC-3 prostate, in the assay with SW-620 colon, with MCF7 breast and in the assay on U251 CNS was > 100 µM throughout.
